For series [1] the following is noted: bacteroides thetaiotaomicron, 12 h, 2 µM.
Description: The drug is tested on Bacteroides thetaiotaomicron strain: VPI-5482 for biotransformation. The drug concentrations were measured before and after a 12-h incubation by liquid-chromatography-coupled mass spectrometry (LC–MS)
The nature of series [2]: The drug is tested on Clostridium symbiosum strain: ATCC14940 for biotransformation. The drug concentrations were measured before and after a 12-h incubation by liquid-chromatography-coupled mass spectrometry (LC–MS). The following applies: 2 µM.
Series [3] is described as follows: The drug is tested on Subdoligranulum variabile strain: DSM15176 for biotransformation. The drug concentrations were measured before and after a 12-h incubation by liquid-chromatography-coupled mass spectrometry (LC–MS). The following applies: 2 µM.
Series [4] in a line: The drug is tested on Parabacteroides merdae strain: ATCC43184 for biotransformation. The drug concentrations were measured before and after a 12-h incubation by liquid-chromatography-coupled mass spectrometry (LC–MS). The following applies: 2 µM.
Series [5] in a line: The drug is tested on Collinsella intestinalis strain: DSM13280 for biotransformation. The drug concentrations were measured before and after a 12-h incubation by liquid-chromatography-coupled mass spectrometry (LC–MS). The following applies: 2 µM.
A short description of series [6]: The drug is tested on Bacteroides uniformis strain: ATCC8492 for biotransformation. The drug concentrations were measured before and after a 12-h incubation by liquid-chromatography-coupled mass spectrometry (LC–MS). The following applies: 2 µM.
For series [7] the following is noted: bacteroides eggerthii, 12 h, 2 µM.
Description: The drug is tested on Bacteroides eggerthii strain: DSM20697 for biotransformation. The drug concentrations were measured before and after a 12-h incubation by liquid-chromatography-coupled mass spectrometry (LC–MS)
Series [8] can be described thus: The drug is tested on Bacteroides fragilis strain: ATCC43859 for biotransformation. The drug concentrations were measured before and after a 12-h incubation by liquid-chromatography-coupled mass spectrometry (LC–MS). The following applies: 2 µM.
A short description of series [9]: The drug is tested on Anaerococcus hydrogenalis strain: DSM7454 for biotransformation. The drug concentrations were measured before and after a 12-h incubation by liquid-chromatography-coupled mass spectrometry (LC–MS). The following applies: 2 µM.
Series [10] can be described thus: The drug is tested on Anaerotruncus colihominis strain: DSM17241 for biotransformation. The drug concentrations were measured before and after a 12-h incubation by liquid-chromatography-coupled mass spectrometry (LC–MS). The following applies: 2 µM.
For series [11] the following is noted: bacteroides thetaiotaomicron, 12 h, 2 µM. The source holds these as a separate data set.
Description: The drug is tested on Bacteroides thetaiotaomicron strain: 7330 for biotransformation. The drug concentrations were measured before and after a 12-h incubation by liquid-chromatography-coupled mass spectrometry (LC–MS)
The nature of series [12]: The drug is tested on Escherichia coli strain: BW25113 for biotransformation. The drug concentrations were measured before and after a 12-h incubation by liquid-chromatography-coupled mass spectrometry (LC–MS). The following applies: 2 µM.
For series [13] the following is noted: limosilactobacillus reuteri cf48-3a, 12 h, 2 µM.
Description: The drug is tested on Lactobacillus reuteri CF48-3A strain: BEI HM-102 for biotransformation. The drug concentrations were measured before and after a 12-h incubation by liquid-chromatography-coupled mass spectrometry (LC–MS)
A short description of series [14]: The drug is tested on Bacteroides sp. WH2 strain: WH2 for biotransformation. The drug concentrations were measured before and after a 12-h incubation by liquid-chromatography-coupled mass spectrometry (LC–MS). The following applies: bacteroides sp. wh2, 12 h, 2 µM.
Series [15] is described as follows: The drug is tested on Bacteroides finegoldii strain: DSM17565 for biotransformation. The drug concentrations were measured before and after a 12-h incubation by liquid-chromatography-coupled mass spectrometry (LC–MS). The following applies: 2 µM.
The conditions of series [16]: bacteroides fragilis, 12 h, 2 µM.
Description: The drug is tested on Bacteroides fragilis strain: DS-208 for biotransformation. The drug concentrations were measured before and after a 12-h incubation by liquid-chromatography-coupled mass spectrometry (LC–MS)
A short description of series [17]: The drug is tested on Enterococcus faecalis strain: V583 for biotransformation. The drug concentrations were measured before and after a 12-h incubation by liquid-chromatography-coupled mass spectrometry (LC–MS). The following applies: 2 µM.
Series [18] in a line: The drug is tested on Bacteroides caccae strain: ATCC43185 for biotransformation. The drug concentrations were measured before and after a 12-h incubation by liquid-chromatography-coupled mass spectrometry (LC–MS). The following applies: 2 µM.
For series [19] the following is noted: segatella copri, 12 h, 2 µM.
Description: The drug is tested on Prevotella copri strain: DSM18205 for biotransformation. The drug concentrations were measured before and after a 12-h incubation by liquid-chromatography-coupled mass spectrometry (LC–MS)

As for `Cc1nc(-c2ccc(OCC(C)C)c(C#N)c2)sc1C(=O)O` [FEBUXOSTAT], the “Bacterial Biotransformation” value in series [1] is recorded as “Compound NOT metabolized”; in series [2] it was “Compound NOT metabolized”; in series [3], “Compound NOT metabolized”; in [4], “Compound NOT metabolized”; in [5] it was “Compound NOT metabolized”; in series [6], “Compound metabolized”. Besides, the “Bacterial Biotransformation” value was “Compound NOT metabolized” in [7]; “Compound metabolized” in [8]; “Compound NOT metabolized” in series [9]; “Compound NOT metabolized” in series [10]; “Compound NOT metabolized” in series [11]; “Compound NOT metabolized” in series [12]. Moreover, the “Bacterial Biotransformation” value in series [13], in series [14], in series [15], in [16] and in [17] was “Compound NOT metabolized” throughout.
Turning to `OCCOCCN1CCN(C2=Nc3ccccc3Sc3ccccc32)CC1` [QUETIAPINE], the “Bacterial Biotransformation” value in series [18], in [2], in series [3], in series [4], in series [5] and in series [19] was “Compound NOT metabolized” throughout. Also, the “Bacterial Biotransformation” value in series [6], in [7], in [8], in series [9], in series [10] and in [11] was “Compound NOT metabolized” throughout. In addition, the “Bacterial Biotransformation” value in series [12], in series [13], in [14], in series [15] and in series [16] was “Compound NOT metabolized” each time.
For `CCN(CC)CCCC(C)Nc1c2ccc(Cl)cc2nc2ccc(OC)cc12` (configuration not stated) [QUINACRINE], the “Bacterial Biotransformation” value in series [1], in series [3], in series [4], in series [5], in [19] and in series [6] was “Compound NOT metabolized” each time. The “Bacterial Biotransformation” value in series [7], in [8], in [10], in series [11], in [12] and in series [13] was “Compound NOT metabolized” throughout. The “Bacterial Biotransformation” value in [14], in [15] and in [16] was “Compound NOT metabolized” throughout.
As for `O=C1C(CC[S+]([O-])c2ccccc2)C(=O)N(c2ccccc2)N1c1ccccc1` (configuration not stated) [SULFINPYRAZONE], the “Bacterial Biotransformation” value in [18], in [1], in series [3], in [4], in [5] and in series [19] was “Compound NOT metabolized” in each case. The “Bacterial Biotransformation” value in series [7] is on record as “Compound NOT metabolized”; in series [8], “Compound metabolized”; in series [9] it was “Compound NOT metabolized”; in series [10], “Compound NOT metabolized”; in [11], “Compound NOT metabolized”; in series [12], “Compound NOT metabolized”. Also, the “Bacterial Biotransformation” value in series [13] was “Compound NOT metabolized”; in series [15], “Compound NOT metabolized”; in [16] it was “Compound metabolized”; in series [17], “Compound NOT metabolized”.
`CN1C(C(=O)Nc2ccccn2)=C(O)c2sccc2S1(=O)=O` [TENOXICAM]: the “Bacterial Biotransformation” value in series [18], in [1], in [2], in series [3], in series [4] and in [5] was “Compound NOT metabolized” throughout. Also, the “Bacterial Biotransformation” value in series [19], in series [6], in [7], in [8], in series [9] and in [11] was “Compound NOT metabolized” throughout. Also, the “Bacterial Biotransformation” value in series [12] and in series [13] was “Compound NOT metabolized” each time.
Take `OC(CCN1CCCCC1)(c1ccccc1)C1CCCCC1` (configuration not stated) [TRIHEXYPHENIDYL]: the “Bacterial Biotransformation” value in series [18] is on record as “Compound NOT metabolized”; in series [1] it was “Compound NOT metabolized”; in series [2], “Compound NOT metabolized”; in series [3], “Compound NOT metabolized”; in series [5], “Compound NOT metabolized”; in series [6] it was “Compound metabolized”. Further, the “Bacterial Biotransformation” value in series [8], in [9], in series [10], in [12], in series [13] and in series [14] was “Compound NOT metabolized” throughout. Further, the “Bacterial Biotransformation” value in series [15], in series [16] and in series [17] was “Compound NOT metabolized” throughout.
`C[C@@H](c1ncncc1F)[C@](O)(Cn1cncn1)c1ccc(F)cc1F` [VORICONAZOLE]: the “Bacterial Biotransformation” value in [18], in series [2], in series [3], in series [4], in series [5] and in [19] was “Compound NOT metabolized” throughout. For the same compound, the “Bacterial Biotransformation” value in [6] is recorded as “Compound metabolized”; in series [7], “Compound NOT metabolized”; in series [8], “Compound metabolized”; in series [9], “Compound NOT metabolized”; in series [10] it was “Compound NOT metabolized”; in series [11] it was “Compound metabolized”. Besides, the “Bacterial Biotransformation” value in series [12] is given as “Compound NOT metabolized”; in [13], “Compound NOT metabolized”; in [14], “Compound NOT metabolized”; in series [15] it was “Compound NOT metabolized”; in [16] it was “Compound metabolized”; in series [17] it was “Compound NOT metabolized”.

(Values after ChEMBL document CHEMBL5303573, “Mapping human microbiome drug metabolism by gut bacteria and their genes” (Nature, 2019).)
